{"source": "paper PMC3814616", "about": "“BRAF inhibitors suppress apoptosis through off-target inhibition of JNK signaling” (eLife, 2013)", "key": {"MAP4K5": {"target": "T1, MAP4K5 (Homo sapiens, UniProt Q9Y4K4)", "T1 construct": "purchased KINOMEscan (DiscoveRx), San Diego, CA", "T1 sequence (Q9Y4K4 whole entry)": "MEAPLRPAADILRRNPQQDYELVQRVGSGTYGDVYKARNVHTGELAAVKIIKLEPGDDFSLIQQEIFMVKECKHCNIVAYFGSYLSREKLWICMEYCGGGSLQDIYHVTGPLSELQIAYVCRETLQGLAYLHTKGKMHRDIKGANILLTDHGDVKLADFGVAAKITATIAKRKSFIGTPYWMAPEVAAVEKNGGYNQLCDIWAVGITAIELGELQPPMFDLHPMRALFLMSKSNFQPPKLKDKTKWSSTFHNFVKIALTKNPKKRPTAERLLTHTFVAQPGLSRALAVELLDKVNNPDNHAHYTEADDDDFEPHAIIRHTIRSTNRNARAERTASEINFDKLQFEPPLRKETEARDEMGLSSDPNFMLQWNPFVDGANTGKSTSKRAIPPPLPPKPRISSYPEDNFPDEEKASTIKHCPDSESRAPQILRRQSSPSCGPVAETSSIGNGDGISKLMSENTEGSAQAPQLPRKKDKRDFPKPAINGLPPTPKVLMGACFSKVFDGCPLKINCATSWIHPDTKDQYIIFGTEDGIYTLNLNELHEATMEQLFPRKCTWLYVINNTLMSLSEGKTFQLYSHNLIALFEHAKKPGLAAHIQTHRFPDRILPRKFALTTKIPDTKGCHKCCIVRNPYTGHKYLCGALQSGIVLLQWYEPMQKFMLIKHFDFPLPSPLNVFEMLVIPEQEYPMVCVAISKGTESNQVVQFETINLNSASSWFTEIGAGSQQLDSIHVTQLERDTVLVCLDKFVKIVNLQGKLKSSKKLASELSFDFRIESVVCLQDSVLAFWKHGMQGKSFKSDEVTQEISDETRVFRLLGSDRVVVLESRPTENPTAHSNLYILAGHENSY", "experiment": "Quantitative competitive binding assay (KINOMEscan)", "settings": "for IC50: estimated Kd, averaged pointwise estimates, transformed Hill equation, read-out: Calculated estimate of IC50; for remaining binding at 0.05 µM: read-out: Percent control (50 nM); for remaining binding at 0.2 µM: read-out: Percent control (200 nM); for remaining binding at 1 µM: read-out: Percent control (1000 nM); for remaining binding at 10 µM: read-out: Percent control (10 μM)"}, "MINK (MINK1)": {"target": "T2, MINK (MINK1) (Homo sapiens, UniProt Q8N4C8)", "T2 construct": "purchased KINOMEscan (DiscoveRx), San Diego, CA", "T2 sequence (Q8N4C8 whole entry)": "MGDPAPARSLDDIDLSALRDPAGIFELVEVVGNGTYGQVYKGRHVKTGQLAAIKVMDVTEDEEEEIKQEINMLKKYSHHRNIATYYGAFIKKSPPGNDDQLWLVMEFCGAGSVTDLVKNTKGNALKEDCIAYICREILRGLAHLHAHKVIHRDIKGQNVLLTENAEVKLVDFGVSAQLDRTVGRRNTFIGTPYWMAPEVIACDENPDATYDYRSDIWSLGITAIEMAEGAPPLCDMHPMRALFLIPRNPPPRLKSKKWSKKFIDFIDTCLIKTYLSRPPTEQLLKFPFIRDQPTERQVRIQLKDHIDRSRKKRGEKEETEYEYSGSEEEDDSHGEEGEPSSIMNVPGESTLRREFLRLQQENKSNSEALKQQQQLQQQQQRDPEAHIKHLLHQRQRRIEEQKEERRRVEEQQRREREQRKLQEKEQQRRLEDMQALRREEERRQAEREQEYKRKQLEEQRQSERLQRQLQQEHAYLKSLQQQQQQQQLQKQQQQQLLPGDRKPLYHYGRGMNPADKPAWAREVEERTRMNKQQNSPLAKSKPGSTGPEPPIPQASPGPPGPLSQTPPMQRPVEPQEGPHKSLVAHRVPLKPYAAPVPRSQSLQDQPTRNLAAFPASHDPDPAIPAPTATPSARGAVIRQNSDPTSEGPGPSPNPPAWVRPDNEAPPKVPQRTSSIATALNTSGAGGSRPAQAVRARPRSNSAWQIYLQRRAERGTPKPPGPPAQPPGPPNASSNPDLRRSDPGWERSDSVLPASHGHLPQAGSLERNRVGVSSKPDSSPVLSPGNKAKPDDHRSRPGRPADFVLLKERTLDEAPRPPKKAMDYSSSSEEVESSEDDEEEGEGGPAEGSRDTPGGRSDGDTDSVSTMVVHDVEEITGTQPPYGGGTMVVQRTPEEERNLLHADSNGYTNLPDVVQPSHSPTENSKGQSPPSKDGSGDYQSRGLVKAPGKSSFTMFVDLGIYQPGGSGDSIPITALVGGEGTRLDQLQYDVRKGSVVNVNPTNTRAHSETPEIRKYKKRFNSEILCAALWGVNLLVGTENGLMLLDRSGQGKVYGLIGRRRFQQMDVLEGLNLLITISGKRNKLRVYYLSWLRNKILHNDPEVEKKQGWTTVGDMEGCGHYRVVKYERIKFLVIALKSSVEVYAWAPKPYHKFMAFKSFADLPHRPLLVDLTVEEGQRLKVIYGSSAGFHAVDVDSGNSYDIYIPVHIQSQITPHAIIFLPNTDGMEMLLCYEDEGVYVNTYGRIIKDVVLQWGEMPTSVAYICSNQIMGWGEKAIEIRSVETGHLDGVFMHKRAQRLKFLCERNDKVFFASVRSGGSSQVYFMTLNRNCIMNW", "experiment": "Quantitative competitive binding assay (KINOMEscan)", "settings": "for remaining binding at 0.05 µM: read-out: Percent control (50 nM); for remaining binding at 0.2 µM: read-out: Percent control (200 nM); for remaining binding at 1 µM: read-out: Percent control (1000 nM); for remaining binding at 10 µM: read-out: Percent control (10 μM)"}, "JNK and p38 isoforms": {"system": "JNK and p38 isoforms", "parameters": "method as in Tsai et al., 2008; Bollag et al., 2010", "settings": "ref Tsai et al., 2008; Bollag et al., 2010; cited from earlier work"}, "MAP3K3": {"target": "T3, MAP3K3 (Homo sapiens, UniProt Q99759)", "T3 construct": "purchased KINOMEscan (DiscoveRx), San Diego, CA", "T3 sequence (Q99759 whole entry)": "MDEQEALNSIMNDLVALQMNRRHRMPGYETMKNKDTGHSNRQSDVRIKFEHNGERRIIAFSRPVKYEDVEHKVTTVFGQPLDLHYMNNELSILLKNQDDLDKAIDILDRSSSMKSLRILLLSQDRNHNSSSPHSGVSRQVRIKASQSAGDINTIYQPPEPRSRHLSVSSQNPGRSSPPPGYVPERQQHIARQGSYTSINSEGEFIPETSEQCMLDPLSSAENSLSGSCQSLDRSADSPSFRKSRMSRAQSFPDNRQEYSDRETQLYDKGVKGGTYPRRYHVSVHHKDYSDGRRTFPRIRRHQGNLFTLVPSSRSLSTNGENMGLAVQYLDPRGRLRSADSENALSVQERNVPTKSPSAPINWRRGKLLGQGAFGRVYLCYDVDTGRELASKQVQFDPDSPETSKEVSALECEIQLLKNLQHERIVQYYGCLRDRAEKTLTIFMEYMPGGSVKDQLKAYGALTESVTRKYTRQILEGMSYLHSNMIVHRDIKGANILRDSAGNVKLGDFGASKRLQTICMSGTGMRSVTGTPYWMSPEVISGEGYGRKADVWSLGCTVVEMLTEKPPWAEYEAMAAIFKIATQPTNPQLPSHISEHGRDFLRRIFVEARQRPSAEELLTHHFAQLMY", "experiment": "Quantitative competitive binding assay (KINOMEscan)", "settings": "for remaining binding at 0.05 µM: read-out: Percent control (50 nM); for remaining binding at 0.2 µM: read-out: Percent control (200 nM); for remaining binding at 1 µM: read-out: Percent control (1000 nM); for remaining binding at 10 µM: read-out: Percent control (10 μM)"}, "MEK6 (MAP2K6)": {"target": "T4, MEK6 (MAP2K6) (Homo sapiens, UniProt P52564)", "T4 construct": "purchased KINOMEscan (DiscoveRx), San Diego, CA", "T4 sequence (P52564 whole entry)": "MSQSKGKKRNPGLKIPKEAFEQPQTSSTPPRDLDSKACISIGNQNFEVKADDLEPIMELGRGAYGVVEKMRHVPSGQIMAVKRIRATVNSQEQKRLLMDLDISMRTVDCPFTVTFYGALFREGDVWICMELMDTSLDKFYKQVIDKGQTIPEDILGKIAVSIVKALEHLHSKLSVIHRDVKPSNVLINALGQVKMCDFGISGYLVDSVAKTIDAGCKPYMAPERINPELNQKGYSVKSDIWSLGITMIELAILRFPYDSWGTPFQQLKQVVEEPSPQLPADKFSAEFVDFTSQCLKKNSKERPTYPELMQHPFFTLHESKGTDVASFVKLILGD", "experiment": "Quantitative competitive binding assay (KINOMEscan)", "settings": "for remaining binding at 0.05 µM: read-out: Percent control (50 nM); for remaining binding at 0.2 µM: read-out: Percent control (200 nM); for remaining binding at 1 µM: read-out: Percent control (1000 nM); for remaining binding at 10 µM: read-out: Percent control (10 μM)"}, "DLK (MAP3K12)": {"target": "T5, DLK (MAP3K12) (Homo sapiens, UniProt Q12852)", "T5 construct": "purchased KINOMEscan (DiscoveRx), San Diego, CA", "T5 sequence (Q12852 whole entry)": "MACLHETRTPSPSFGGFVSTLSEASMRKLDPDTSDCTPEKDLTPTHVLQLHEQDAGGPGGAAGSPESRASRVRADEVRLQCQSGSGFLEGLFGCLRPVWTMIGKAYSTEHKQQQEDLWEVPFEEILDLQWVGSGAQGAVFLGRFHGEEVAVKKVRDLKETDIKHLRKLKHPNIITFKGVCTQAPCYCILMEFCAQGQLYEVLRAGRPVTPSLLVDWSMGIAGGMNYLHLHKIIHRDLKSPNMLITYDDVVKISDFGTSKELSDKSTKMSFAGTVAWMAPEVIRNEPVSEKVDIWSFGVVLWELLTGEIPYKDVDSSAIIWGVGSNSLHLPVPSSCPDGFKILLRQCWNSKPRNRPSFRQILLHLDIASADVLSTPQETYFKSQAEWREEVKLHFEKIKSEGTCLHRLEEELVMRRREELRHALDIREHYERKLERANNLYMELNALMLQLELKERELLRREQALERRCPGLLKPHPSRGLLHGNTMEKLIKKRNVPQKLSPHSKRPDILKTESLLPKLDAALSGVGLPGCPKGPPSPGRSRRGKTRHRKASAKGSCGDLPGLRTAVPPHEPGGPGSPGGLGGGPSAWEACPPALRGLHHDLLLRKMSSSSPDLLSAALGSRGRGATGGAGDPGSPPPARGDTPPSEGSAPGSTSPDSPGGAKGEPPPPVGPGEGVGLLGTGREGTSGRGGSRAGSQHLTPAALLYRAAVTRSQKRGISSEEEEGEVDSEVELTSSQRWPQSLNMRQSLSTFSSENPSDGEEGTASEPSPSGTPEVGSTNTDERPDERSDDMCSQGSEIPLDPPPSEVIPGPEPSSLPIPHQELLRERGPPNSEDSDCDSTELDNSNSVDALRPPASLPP", "experiment": "Quantitative competitive binding assay (KINOMEscan)", "settings": "for remaining binding at 0.05 µM: read-out: Percent control (50 nM); for remaining binding at 0.2 µM: read-out: Percent control (200 nM); for remaining binding at 1 µM: read-out: Percent control (1000 nM); for remaining binding at 10 µM: read-out: Percent control (10 μM)"}, "ASK1 (MAP3K5)": {"target": "T6, ASK1 (MAP3K5) (Homo sapiens, UniProt Q99683)", "T6 construct": "purchased KINOMEscan (DiscoveRx), San Diego, CA", "T6 sequence (Q99683 1-1374)": "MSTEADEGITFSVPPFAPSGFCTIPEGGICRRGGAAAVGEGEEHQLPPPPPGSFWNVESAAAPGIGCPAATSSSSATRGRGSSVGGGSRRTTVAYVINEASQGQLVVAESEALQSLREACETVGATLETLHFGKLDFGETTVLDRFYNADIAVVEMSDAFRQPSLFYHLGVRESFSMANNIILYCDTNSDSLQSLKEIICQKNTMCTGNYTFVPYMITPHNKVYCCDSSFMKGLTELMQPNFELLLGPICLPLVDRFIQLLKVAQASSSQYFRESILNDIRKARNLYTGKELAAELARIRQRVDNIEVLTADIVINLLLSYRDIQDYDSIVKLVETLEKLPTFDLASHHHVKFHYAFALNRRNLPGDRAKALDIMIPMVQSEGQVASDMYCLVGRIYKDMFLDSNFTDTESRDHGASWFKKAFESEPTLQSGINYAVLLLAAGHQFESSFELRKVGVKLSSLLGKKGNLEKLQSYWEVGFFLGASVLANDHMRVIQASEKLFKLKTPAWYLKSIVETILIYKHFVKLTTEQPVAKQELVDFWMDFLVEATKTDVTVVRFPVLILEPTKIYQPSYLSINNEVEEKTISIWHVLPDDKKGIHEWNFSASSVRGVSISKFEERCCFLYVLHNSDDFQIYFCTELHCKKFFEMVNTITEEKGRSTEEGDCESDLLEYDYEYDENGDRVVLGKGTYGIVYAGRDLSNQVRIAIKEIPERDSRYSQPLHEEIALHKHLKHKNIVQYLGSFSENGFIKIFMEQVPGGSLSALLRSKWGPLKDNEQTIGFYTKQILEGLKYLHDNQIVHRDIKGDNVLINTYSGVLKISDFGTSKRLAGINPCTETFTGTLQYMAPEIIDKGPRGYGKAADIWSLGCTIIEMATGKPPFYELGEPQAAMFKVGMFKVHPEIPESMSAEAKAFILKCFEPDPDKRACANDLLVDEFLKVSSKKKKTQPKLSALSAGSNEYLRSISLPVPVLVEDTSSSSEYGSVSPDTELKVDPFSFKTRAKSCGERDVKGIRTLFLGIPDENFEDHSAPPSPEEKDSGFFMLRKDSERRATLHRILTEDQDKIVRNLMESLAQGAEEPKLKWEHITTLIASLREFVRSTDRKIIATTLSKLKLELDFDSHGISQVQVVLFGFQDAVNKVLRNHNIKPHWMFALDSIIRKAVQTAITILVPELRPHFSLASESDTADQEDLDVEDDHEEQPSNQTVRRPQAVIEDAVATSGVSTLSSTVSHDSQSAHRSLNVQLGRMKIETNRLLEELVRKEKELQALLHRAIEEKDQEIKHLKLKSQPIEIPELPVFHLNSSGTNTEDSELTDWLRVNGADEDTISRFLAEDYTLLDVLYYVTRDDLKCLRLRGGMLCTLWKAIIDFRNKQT", "experiment": "Quantitative competitive binding assay (KINOMEscan)", "settings": "for IC50: estimated Kd, averaged pointwise estimates, transformed Hill equation, read-out: Calculated estimate of IC50; for remaining binding at 0.05 µM: read-out: Percent control (50 nM); for remaining binding at 0.2 µM: read-out: Percent control (200 nM); for remaining binding at 1 µM: read-out: Percent control (1000 nM); for remaining binding at 10 µM: read-out: Percent control (10 μM)"}, "[1]": {"settings": "estimated Kd, averaged pointwise estimates, transformed Hill equation, read-out: Calculated estimate of IC50"}}}
{"smiles": "CCCS(=O)(=O)Nc1ccc(F)c(C(=O)c2c[nH]c3ncc(Cl)cc23)c1F", "note": "[PLX4720]", "values": [{"measurement": "IC50", "setting": "MAP4K5", "result": 1.26, "unit": "µM"}, {"measurement": "remaining binding at 0.05 µM", "setting": "MAP4K5", "result": 96, "unit": "%"}, {"measurement": "remaining binding at 0.2 µM", "setting": "MAP4K5", "result": 100, "unit": "%"}, {"measurement": "remaining binding at 1 µM", "setting": "MAP4K5", "result": 63, "unit": "%"}, {"measurement": "remaining binding at 10 µM", "setting": "MAP4K5", "result": 8, "unit": "%"}, {"measurement": "remaining binding at 0.05 µM", "setting": "MINK (MINK1)", "result": 89, "unit": "%"}, {"measurement": "remaining binding at 0.2 µM", "setting": "MINK (MINK1)", "result": 100, "unit": "%"}, {"measurement": "remaining binding at 1 µM", "setting": "MINK (MINK1)", "result": 98, "unit": "%"}, {"measurement": "remaining binding at 10 µM", "setting": "MINK (MINK1)", "result": 55, "unit": "%"}, {"measurement": "direct inhibition of JNK and p38 isoforms", "setting": "JNK and p38 isoforms", "result": "not significantly inhibited"}, {"measurement": "remaining binding at 0.05 µM", "setting": "MAP3K3", "result": 94, "unit": "%"}, {"measurement": "remaining binding at 0.2 µM", "setting": "MAP3K3", "result": 97, "unit": "%"}, {"measurement": "remaining binding at 1 µM", "setting": "MAP3K3", "result": 98, "unit": "%"}, {"measurement": "remaining binding at 10 µM", "setting": "MAP3K3", "result": 75, "unit": "%"}, {"measurement": "remaining binding at 0.05 µM", "setting": "MEK6 (MAP2K6)", "result": 82, "unit": "%"}, {"measurement": "remaining binding at 0.2 µM", "setting": "MEK6 (MAP2K6)", "result": 100, "unit": "%"}, {"measurement": "remaining binding at 1 µM", "setting": "MEK6 (MAP2K6)", "result": 100, "unit": "%"}, {"measurement": "remaining binding at 10 µM", "setting": "MEK6 (MAP2K6)", "result": 47, "unit": "%"}, {"measurement": "remaining binding at 0.05 µM", "setting": "DLK (MAP3K12)", "result": 95, "unit": "%"}, {"measurement": "remaining binding at 0.2 µM", "setting": "DLK (MAP3K12)", "result": 98, "unit": "%"}, {"measurement": "remaining binding at 1 µM", "setting": "DLK (MAP3K12)", "result": 100, "unit": "%"}, {"measurement": "remaining binding at 10 µM", "setting": "DLK (MAP3K12)", "result": 92, "unit": "%"}, {"measurement": "IC50", "setting": "ASK1 (MAP3K5)", "result": 14.2, "unit": "µM"}, {"measurement": "remaining binding at 0.05 µM", "setting": "ASK1 (MAP3K5)", "result": 89, "unit": "%"}, {"measurement": "remaining binding at 0.2 µM", "setting": "ASK1 (MAP3K5)", "result": 98, "unit": "%"}, {"measurement": "remaining binding at 1 µM", "setting": "ASK1 (MAP3K5)", "result": 97, "unit": "%"}, {"measurement": "remaining binding at 10 µM", "setting": "ASK1 (MAP3K5)", "result": 100, "unit": "%"}]}
{"smiles": "CCCS(=O)(=O)Nc1ccc(F)c(C(=O)c2c[nH]c3ncc(-c4ccc(Cl)cc4)cc23)c1F", "note": "[vemurafenib]", "values": [{"measurement": "IC50", "setting": "MAP4K5", "result": 0.0582, "unit": "µM"}, {"measurement": "remaining binding at 0.05 µM", "setting": "MAP4K5", "result": 62, "unit": "%"}, {"measurement": "remaining binding at 0.2 µM", "setting": "MAP4K5", "result": 33, "unit": "%"}, {"measurement": "remaining binding at 1 µM", "setting": "MAP4K5", "result": 4.1, "unit": "%"}, {"measurement": "remaining binding at 10 µM", "setting": "MAP4K5", "result": 0.1, "unit": "%"}, {"measurement": "IC50", "setting": "MINK (MINK1); [1]", "result": 14.8, "unit": "µM"}, {"measurement": "remaining binding at 0.05 µM", "setting": "MINK (MINK1)", "result": 100, "unit": "%"}, {"measurement": "remaining binding at 0.2 µM", "setting": "MINK (MINK1)", "result": 100, "unit": "%"}, {"measurement": "remaining binding at 1 µM", "setting": "MINK (MINK1)", "result": 91, "unit": "%"}, {"measurement": "remaining binding at 10 µM", "setting": "MINK (MINK1)", "result": 66, "unit": "%"}, {"measurement": "direct inhibition of JNK and p38 isoforms", "setting": "JNK and p38 isoforms", "result": "not significantly inhibited"}, {"measurement": "remaining binding at 0.05 µM", "setting": "MAP3K3", "result": 87, "unit": "%"}, {"measurement": "remaining binding at 0.2 µM", "setting": "MAP3K3", "result": 97, "unit": "%"}, {"measurement": "remaining binding at 1 µM", "setting": "MAP3K3", "result": 100, "unit": "%"}, {"measurement": "remaining binding at 10 µM", "setting": "MAP3K3", "result": 94, "unit": "%"}, {"measurement": "IC50", "setting": "MEK6 (MAP2K6); [1]", "result": 4.08, "unit": "µM"}, {"measurement": "remaining binding at 0.05 µM", "setting": "MEK6 (MAP2K6)", "result": 91, "unit": "%"}, {"measurement": "remaining binding at 0.2 µM", "setting": "MEK6 (MAP2K6)", "result": 97, "unit": "%"}, {"measurement": "remaining binding at 1 µM", "setting": "MEK6 (MAP2K6)", "result": 87, "unit": "%"}, {"measurement": "remaining binding at 10 µM", "setting": "MEK6 (MAP2K6)", "result": 21, "unit": "%"}, {"measurement": "remaining binding at 0.05 µM", "setting": "DLK (MAP3K12)", "result": 98, "unit": "%"}, {"measurement": "remaining binding at 0.2 µM", "setting": "DLK (MAP3K12)", "result": 97, "unit": "%"}, {"measurement": "remaining binding at 1 µM", "setting": "DLK (MAP3K12)", "result": 66, "unit": "%"}, {"measurement": "remaining binding at 10 µM", "setting": "DLK (MAP3K12)", "result": 92, "unit": "%"}, {"measurement": "IC50", "setting": "ASK1 (MAP3K5)", "result": 12, "unit": "µM"}, {"measurement": "remaining binding at 0.05 µM", "setting": "ASK1 (MAP3K5)", "result": 90, "unit": "%"}, {"measurement": "remaining binding at 0.2 µM", "setting": "ASK1 (MAP3K5)", "result": 94, "unit": "%"}, {"measurement": "remaining binding at 1 µM", "setting": "ASK1 (MAP3K5)", "result": 97, "unit": "%"}, {"measurement": "remaining binding at 10 µM", "setting": "ASK1 (MAP3K5)", "result": 100, "unit": "%"}]}
